The experiment has as its system CD2F1 mice, L1210 leukemia ip, survival T/C. Kind of experiment: NCI In Vivo Anticancer Drug Screen. Data for tumor model L1210 Leukemia (intraperitoneal) in CD2F1 (CDF1) mice. To be noted: higher = longer survival. Here is the method:
The antitumor activity of compounds was measured in mice bearing transplantable tumors. Survival or tumor size were measured and the results are expressed as the measurement made in the treated group (T) divided by the measurement made in the vehicle treated control group (C). The tumor model used in this assay is L1210 Leukemia (intraperitoneal) in CD2F1 (CDF1) mice

Where [1] appears, read: endpoint: mean survival time, dose: 100.0 mg/kg/injection, schedule: Q01DX009 (ip), vehicle: saline with Tween-80.
The mark [2] stands for this setting: endpoint: mean survival time, dose: 100.0 mg/kg/injection, schedule: Q01DX001 (ip), vehicle: saline with Tween-80.
[3] abbreviates: endpoint: mean survival time, dose: 200.0 mg/kg/injection, schedule: Q01DX001 (ip), vehicle: saline with Tween-80.
Where [4] appears, read: endpoint: mean survival time, dose: 400.0 mg/kg/injection, schedule: Q01DX001 (ip), vehicle: saline with Tween-80.
Setting [5] is: endpoint: mean survival time, dose: 100.0 mg/kg/injection, schedule: Q04DX003 (ip), vehicle: saline with Tween-80.
The mark [6] stands for this setting: endpoint: mean survival time, dose: 200.0 mg/kg/injection, schedule: Q04DX003 (ip), vehicle: saline with Tween-80.
Setting [7] is: endpoint: mean survival time, dose: 400.0 mg/kg/injection, schedule: Q04DX003 (ip), vehicle: saline with Tween-80.
The mark [8] stands for this setting: endpoint: mean survival time, dose: 200.0 mg/kg/injection, schedule: Q04DX002 (ip), vehicle: saline with Tween-80.

The record followed here is PubChem BioAssay AID256 (DTP/NCI, 2004).

Values joined by “and” are separate entries in the source; they are usually repeats but may differ in a detail not shown here. Equal values may be shown once. Toxic doses and inconclusive results are not listed.

On to `O=C(O)C(=O)O.[Ru].c1cnc2c(c1)ccc1cccnc12.c1cnc2c(c1)ccc1cccnc12`, for which the T/C runs as follows: (endpoint: mean survival time, dose: 3.13 mg/kg/injection, schedule: Q04DX003 (ip), vehicle: water) 95 % of control; (endpoint: mean survival time, dose: 6.25 mg/kg/injection, schedule: Q04DX003 (ip), vehicle: water) 96 % of control; (endpoint: mean survival time, dose: 12.5 mg/kg/injection, schedule: Q04DX003 (ip), vehicle: water) 93 % of control; (endpoint: mean survival time, dose: 25.0 mg/kg/injection, schedule: Q04DX003 (ip), vehicle: water) 93 % of control; (endpoint: mean survival time, dose: 50.0 mg/kg/injection, schedule: Q04DX003 (ip), vehicle: water) 95 % of control; (endpoint: mean survival time, dose: 100.0 mg/kg/injection, schedule: Q04DX003 (ip), vehicle: water) 91 % of control. The T/C (endpoint: mean survival time, dose: 200.0 mg/kg/injection, schedule: Q04DX003 (ip), vehicle: water) was 90 % of control.

For the compound `CC[N+](CC)=C1SCCCS1`, the T/C is 100 % of control (endpoint: mean survival time, dose: 6.25 mg/kg/injection, schedule: Q04DX003 (ip), vehicle: saline); 100 % of control (endpoint: mean survival time, dose: 12.5 mg/kg/injection, schedule: Q04DX003 (ip), vehicle: saline); 100 % of control (endpoint: mean survival time, dose: 25.0 mg/kg/injection, schedule: Q04DX003 (ip), vehicle: saline).

Take `O=NN(CCF)C(=O)NC1CCCCC1`: the T/C by setting is: (endpoint: median survival time, dose: 2.5 mg/kg/injection, schedule: Q01DX001 (ip), vehicle: saline) 101 % of control; (endpoint: median survival time, dose: 2.5 mg/kg/injection, schedule: Q04DX002 (ip), vehicle: saline) 93 % of control; (endpoint: median survival time, dose: 5.0 mg/kg/injection, schedule: Q01DX001 (ip), vehicle: saline) 101 % of control; (endpoint: median survival time, dose: 5.0 mg/kg/injection, schedule: Q04DX002 (ip), vehicle: saline) 106 % of control; (endpoint: median survival time, dose: 10.0 mg/kg/injection, schedule: Q01DX001 (ip), vehicle: saline) 102 % of control; (endpoint: median survival time, dose: 10.0 mg/kg/injection, schedule: Q04DX002 (ip), vehicle: saline) 120 % of control and 223 % of control. In addition, the T/C reads like this: (endpoint: median survival time, dose: 20.0 mg/kg/injection, schedule: Q01DX001 (ip), vehicle: saline) 103 % of control; (endpoint: median survival time, dose: 20.0 mg/kg/injection, schedule: Q04DX002 (ip), vehicle: saline) 365 % of control; (endpoint: median survival time, dose: 40.0 mg/kg/injection, schedule: Q01DX001 (ip), vehicle: saline) 120 % of control; (endpoint: median survival time, dose: 40.0 mg/kg/injection, schedule: Q04DX002 (ip), vehicle: saline) 216 % of control and 365 % of control; (endpoint: median survival time, dose: 80.0 mg/kg/injection, schedule: Q01DX001 (ip), vehicle: saline) 168 % of control; (endpoint: median survival time, dose: 80.0 mg/kg/injection, schedule: Q04DX002 (ip), vehicle: saline) 207 % of control and 361 % of control.

On to `O=NN(CCCl)C(=O)Nc1ccc2c(c1)OCO2`, for which the T/C was 156 % of control (endpoint: mean survival time, dose: 44.0 mg/kg/injection, schedule: Q01DX001 (ip), vehicle: other); 216 % of control (endpoint: mean survival time, dose: 66.0 mg/kg/injection, schedule: Q01DX001 (ip), vehicle: other); 277 % of control (endpoint: mean survival time, dose: 100.0 mg/kg/injection, schedule: Q01DX001 (ip), vehicle: other); 171 % of control (endpoint: mean survival time, dose: 150.0 mg/kg/injection, schedule: Q01DX001 (ip), vehicle: other).

On to `C1=CC2C3C=CC(CC3)C2CC1` (centres undefined), for which the T/C by setting is: under setting [1], 103 % of control; (endpoint: mean survival time, dose: 200.0 mg/kg/injection, schedule: Q01DX009 (ip), vehicle: saline with Tween-80) 98 % of control.

As to `Fc1c(F)c(F)c(-c2nnc(-c3c(F)c(F)c(F)c(F)c3F)o2)c(F)c1F`, the T/C was 96 % of control under setting [2], 96 % of control under setting [3] and 95 % of control under setting [4].

Take `O=c1[nH]nc(-c2cccc3ccccc23)c2ccccc12`: the T/C runs as follows: under setting [5], 97 % of control; under setting [6], 94 % of control; under setting [7], 97 % of control.

As to `CCCCCCNC(=O)Oc1c(C/C=C/CCC(=O)O)c(OC)c(C)c2c1C(=O)OC2`, the T/C runs as follows: (endpoint: mean survival time, dose: 100.0 mg/kg/injection, schedule: Q04DX002 (ip), vehicle: saline with Tween-80) 108 % of control; under setting [8], 112 % of control.

Take `CN(C)/N=C\c1ccc([N+](C)(C)C)cc1`: the T/C is, setting by setting: (endpoint: mean survival time, dose: 12.5 mg/kg/injection, schedule: Q04DX003 (ip), vehicle: Klucel (hydroxypropylcellulose) (HPC)) 103 % of control; (endpoint: mean survival time, dose: 25.0 mg/kg/injection, schedule: Q04DX003 (ip), vehicle: Klucel (hydroxypropylcellulose) (HPC)) 109 % of control; (endpoint: mean survival time, dose: 50.0 mg/kg/injection, schedule: Q04DX003 (ip), vehicle: Klucel (hydroxypropylcellulose) (HPC)) 106 % of control.

Take `O=C(COc1ccc(Cl)cc1C(=O)O)NCc1cccc(NC(=O)Nc2cccc(S(=O)(=O)F)c2)c1`: the T/C reads like this: under setting [2], 91 % of control; under setting [3], 93 % of control; under setting [4], 88 % of control.

With `Cc1ccc(S(=O)(=O)N/N=C\c2cccnc2)cc1`, the T/C by setting is: (endpoint: mean survival time, dose: 12.5 mg/kg/injection, schedule: Q04DX003 (ip), vehicle: other) 101 % of control; (endpoint: mean survival time, dose: 25.0 mg/kg/injection, schedule: Q04DX003 (ip), vehicle: other) 101 % of control; (endpoint: mean survival time, dose: 50.0 mg/kg/injection, schedule: Q04DX003 (ip), vehicle: other) 97 % of control; (endpoint: mean survival time, dose: 100.0 mg/kg/injection, schedule: Q04DX003 (ip), vehicle: other) 101 % of control; (endpoint: mean survival time, dose: 200.0 mg/kg/injection, schedule: Q04DX003 (ip), vehicle: other) 97 % of control; (endpoint: mean survival time, dose: 400.0 mg/kg/injection, schedule: Q04DX003 (ip), vehicle: other) 98 % of control.

For the compound `O=C(/C(=C\c1ccccc1)N1CCOCC1)c1ccc(Cl)cc1`, the T/C was 95 % of control (endpoint: mean survival time, dose: 25.0 mg/kg/injection, schedule: Q01DX009 (ip), vehicle: saline with Tween-80); 97 % of control (endpoint: mean survival time, dose: 50.0 mg/kg/injection, schedule: Q01DX009 (ip), vehicle: saline with Tween-80); 86 % of control under setting [1].

`O=C(O)/C=C/C=C/C(=O)O`: the T/C was 102 % of control and 101 % of control under setting [2]; 104 % of control and 93 % of control under setting [3]; 100 % of control and 101 % of control under setting [4].

For `CCCNC(=O)C1C2CCC(CC2)C1C(=O)NCCC` (centres undefined), the T/C reads like this: under setting [5], 98 % of control; under setting [6], 98 % of control; under setting [7], 95 % of control.

On to `Cc1ccc(S(=O)[O-])cc1.[C-]#[O+].[C-]#[O+].[Fe+6].[c-]1[c-][c-][cH-][c-]1`, for which the T/C runs as follows: (endpoint: mean survival time, dose: 50.0 mg/kg/injection, schedule: Q04DX002 (ip), vehicle: saline with Tween-80) 97 % of control; under setting [8], 108 % of control.
